Patent US20150284683A1, “METHOD, COMBINATION AND/OR COMPOSITION FOR INDUCING CARDIOMYOCYTE DIFFERENTATION” (SINGAPORE HEALTH SERVICES LTD, priority 2012, published 2015)

How the values were obtained:
Type in all cases: cell-based, human
hiPSC C2 cell line = assay: Embryoid body (EB) cardiac differentiation, beating EBs, hiPSC C2
Description: (§1) Human ES cells (H9; Wicell, USA) and iPS cells (MSnviPSNF2 (C2) and MSnviPSNF3 (C3); both described in Mehta et al., 2011) were maintained on 1% matrigel (BD Biosciences, CA, USA) and grown in chemically defined mTeSR1 medium (Stem Cell Technologies, VA, Canada). Differentiated areas (<10%) were manually removed periodically with a scraper and prior to passaging. Pluripotent stem cells were subsequently washed with DMEM-F12 (Invitrogen, CA, USA) and incubated with 1 mg/ml dispase (Stem Cell Technologies, VA, Canada) for 5-7 minutes. Subsequently, cells colonies were washed using DMEM-F12 and carefully cut into small clumps of approximately 50-70 μm in size before being scrapped from the surface of the culture dishes. […]
(§2) Subsequently, addition of different small molecules (components) were carried out at various stages of differentiation, either alone or in combination with at least one other component (FIG. 1): SB 203580 daily from day 2 through to day 8 from EB induction; Wnt modulator IWP4 daily from day 4 through to day 8 from EB induction, CSA daily from day 4 through to day 8 from EB induction, and ROS activator H2O2 on day 8 (15 min prior to plating). […] All EBs were evaluated morphologically under the microscope at 4× magnification for 10-15 seconds. […]

hiPSC C3 cell line = assay: Embryoid body (EB) cardiac differentiation, beating EBs, hiPSC C3
Description: as §1, §2

H3-Nkx2.5-GFP line [1] = assay: Real-time PCR gene expression during standardization of differentiation (Example 2); details: Treated S1+S2+VEGF
Description: For real-time reverse-transcription polymerase chain reaction (qRT-PCR) analysis, RNA was isolated with the RNeasy kit (Qiagen GmbH, Hilden, Germany). One μg of total RNA was converted to complementary DNA. by Superscript III first-strand synthesis system (Invitrogen, CA, USA). cDNA template (5 ng) was used from each sample and SYBR green real-time PCR studies were performed using Quantifast kit (Qiagen GmbH, Hilden, Germany) and primer (Supplementary table 1) as per the kit instructions. Samples were cycled with RotorGene Q (Qiagen GmbH, Hilden, Germany) as follows: 5 minutes at 95° C., followed by 40 cycles of 10 seconds at 95° C. and 30 second extension at 60° C. All experiments were performed in triplicates. Relative quantification was calculated according to the ΔΔCt method for quantitative real-time PCR (using an endogenous control gene, GAPDH). For each gene, the expression at a specific day was then normalized by its baseline values. Heatmaps were generated from Ct values using Genesis software.
To maintain consistency in differentiation efficiency, an EB based protocol was utilised to recapitulate early cardiac development that hinges on stage-specific activation and inhibition′ of Wnt/β-catenin along with BMP modulation. All initial experiments were performed using H3-Nkx2.5-GFP line to standardize the protocol. […]

hESC (H9) cell line = assay: Embryoid body (EB) cardiac differentiation, beating EBs, hESC H9; details: SB203580 5 μM day 2 to day 8
Description: as §1, §2

H3-Nkx2.5-GFP line [2] = assay: Spin EB contraction during protocol standardization (Example 2); details: only 10 uM SB203580; EBs of 2,500 to 7,500 cells
Description: Briefly, hiPSC/hESC lines were pre-treated with 10 μM Y27632 (Stem Cell Technologies, VA, Canada) for 4 h before dissociating them to single cells with. Accutase (Stem Cell Technologies, VA, Canada). Cells were aggregated in spin EBs of 5000 cells/EB in AggreWell™ 800 (Stem Cell Technologies, VA, Canada) in media A (mTesR1: DMEM-F12-B27 (1:1) with 4 mg/mL PVA) with Ascorbic acid (284 μM) and BMP4 ([…]) and centrifuged at 300 g for 5 min and incubated overnight. […] […] […] EBs were plated on day 8 in EB2 medium (DMEM-F12 with 2% FBS) on 0.1% gelatin coated dishes. Beating areas were clearly observed between day 10-14 depending on different cell lines. Beating areas were manually dissected out after day 14 of differentiation and utilized for all experiments.
To maintain consistency in differentiation efficiency, an EB based protocol was utilised to recapitulate early cardiac development that hinges on stage-specific activation and inhibition′ of Wnt/β-catenin along with BMP modulation. All initial experiments were performed using H3-Nkx2.5-GFP line to standardize the protocol. Spin EBs of different sizes (1,000, 2,500, 5,000, 7,500 and 10,000 cells/EB) were made and it was observed that EBs of 2,500 to 7,500 cells gave contracting cardiomyocytes by day 14-15 using only 10 uM SB203580 (FIG. 11B; Non-treated), with highest efficiencies with 5,000 cell EBs. Next. […]

[3] = titration 1, 3, 5, 7 μM with SB203580 5 μM and CSA 3 μg/ml
[4] = SB203580 5 μM day 2-8, without or with CSA 3 μg/ml day 4-8, 21 days

COc1ccccc1-n1c(SCC(=O)Nc2nc3ccc(C)cc3s2)nc2c(c1=O)SCC2 [IWP4, 2-(3,4,6,7-tetrahydro-3-(2-methoxyphenyl)-4-oxothieno[3,2-d]pyrimidin-2-ylthio)-N-(6-methylbenzo[d]thiazol-2-yl)acetamide]
IWP4 concentration at which induction of contracting loci peaked (hiPSC C2 cell line; [3]): 5 µM
IWP4 concentration at which induction of contracting loci peaked (hiPSC C3 cell line; [3]): 5 µM

VEGF
gene expression change (H3-Nkx2.5-GFP line [1]): substantially increased gene expression levels of Wnt11

C[S+]([O-])c1ccc(-c2nc(-c3ccc(F)cc3)c(-c3ccncc3)[nH]2)cc1 (centres unmarked) [SB203580, 4-[4-(4-fluorophenyl)-2-(4-methylsulfinylphenyl)-1H-imidazol-5-yl]pyridine]
day spontaneous beating clusters were first observed (hESC (H9) cell line): 14 days
percentage of total EBs plated found to be beating (hESC (H9) cell line; after 21 days): 16.6%
cardiac-inducing effect (hiPSC C2 cell line; [4]): no cardiac-inducing effect
cardiac-inducing effect (hiPSC C3 cell line; [4]): no cardiac-inducing effect
day by which EBs gave contracting cardiomyocytes (H3-Nkx2.5-GFP line [2]): 14 to 15 days
